Common to all, as to assay type: cell-based
In assay [1] the target is Transient receptor potential cation channel subfamily V member 4 (Homo sapiens) (UniProt Q9HBA0). Description: Activation of TRPV4 in HEK cells assessed as increase in Ca2+ level from extracellular space at 10 uM. The conditions noted are these: HEK293.
For assay [2], the target named is T1, Short transient receptor potential channel 5 (Homo sapiens) (UniProt Q9UL62).
T1 sequence (whole entry): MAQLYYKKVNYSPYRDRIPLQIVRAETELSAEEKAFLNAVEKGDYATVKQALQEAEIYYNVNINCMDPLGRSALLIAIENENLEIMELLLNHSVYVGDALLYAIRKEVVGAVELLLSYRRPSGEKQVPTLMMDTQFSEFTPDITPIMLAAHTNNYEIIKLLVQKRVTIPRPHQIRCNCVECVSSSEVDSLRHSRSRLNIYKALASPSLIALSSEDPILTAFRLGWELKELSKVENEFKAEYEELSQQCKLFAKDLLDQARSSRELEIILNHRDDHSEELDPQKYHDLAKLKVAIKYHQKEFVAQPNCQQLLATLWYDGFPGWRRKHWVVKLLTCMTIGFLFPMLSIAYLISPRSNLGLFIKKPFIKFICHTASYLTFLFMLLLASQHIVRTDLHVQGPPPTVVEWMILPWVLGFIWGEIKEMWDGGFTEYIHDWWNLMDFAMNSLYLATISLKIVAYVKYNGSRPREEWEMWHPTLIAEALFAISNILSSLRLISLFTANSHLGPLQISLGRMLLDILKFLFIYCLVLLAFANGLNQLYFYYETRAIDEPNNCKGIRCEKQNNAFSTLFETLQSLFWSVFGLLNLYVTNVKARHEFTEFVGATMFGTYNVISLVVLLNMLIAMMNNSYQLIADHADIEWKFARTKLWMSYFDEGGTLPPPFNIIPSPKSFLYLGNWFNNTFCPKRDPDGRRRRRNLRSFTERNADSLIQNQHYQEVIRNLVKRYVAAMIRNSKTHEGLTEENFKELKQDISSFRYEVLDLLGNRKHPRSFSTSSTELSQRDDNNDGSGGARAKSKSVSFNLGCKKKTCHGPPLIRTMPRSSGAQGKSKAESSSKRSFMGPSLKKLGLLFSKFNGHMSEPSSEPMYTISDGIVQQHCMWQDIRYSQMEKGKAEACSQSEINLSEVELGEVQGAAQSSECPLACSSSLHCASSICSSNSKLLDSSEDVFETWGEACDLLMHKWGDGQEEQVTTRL
The experiment in a line: Induction of TRPC5 S-nitrosylation in chicken DT40 cells assessed as increase in Ca2+ level from extracellular space at 30 uM in presence of PLC-beta inhibitor U73122.

For assay [3], the system named is T2, Short transient receptor potential channel 5 (Homo sapiens), Q9UL62 [C558S].
T2 sequence (whole entry): T1 sequence (whole entry) with C558S
The experiment in a line: Decrease in TRPC5 C558S mutant S-nitrosylation in HEK cells assessed as inhibition of incorporation of DTNB-2Bio at 30 uM relative to control. The conditions noted are these: HEK293.

In assay [4] the target is Transient receptor potential cation channel subfamily M member 7 (Homo sapiens) (UniProt Q96QT4). The experiment in a line: Induction of TRPM7 S-nitrosylation in HEK cells assessed as increase in Ca2+ level from extracellular space at 30 uM. The conditions noted are these: HEK293.
The subject of the next assay is HEK293. Description: Activation of rat TRPV1 Cys621 mutant expressed in HEK cells assessed as increase in Ca2+ level from extracellular space at 10 uM.
For assay [5], the target named is Transient receptor potential cation channel subfamily V member 1 (Rattus norvegicus) (UniProt O35433). The experiment in a line: Activation of rat TRPV1 expressed in HEK cells assessed as increase in Ca2+ level from extracellular space at 10 uM. The conditions noted are these: HEK293.
The target is the same in assay [6]. The experiment in a line: Activation of rat TRPV1 expressed in HEK cells assessed as increase in Ca2+ level from extracellular space at 300 uM. Particulars: HEK293.
Assay [7] deals with Transient receptor potential cation channel subfamily V member 4 (Homo sapiens) (UniProt Q9HBA0). Description: Activation of TRPV4 in HEK cells assessed as increase in Ca2+ level from extracellular space at 300 uM. The conditions noted are these: HEK293.

Our source for the Activity values is ChEMBL document CHEMBL1250444, “Nitric oxide activates TRP channels by cysteine S-nitrosylation” (Nat Chem Biol, 2006).

Each structure is given as a SMILES string. Numbering of substitutions follows the chain as printed. Calls of active or inactive are those of the source. The calls are words filed in the database; no cut-off is given here.

Chain of Transient receptor potential cation channel subfamily V member 1 (Rattus norvegicus) (O35433 whole entry): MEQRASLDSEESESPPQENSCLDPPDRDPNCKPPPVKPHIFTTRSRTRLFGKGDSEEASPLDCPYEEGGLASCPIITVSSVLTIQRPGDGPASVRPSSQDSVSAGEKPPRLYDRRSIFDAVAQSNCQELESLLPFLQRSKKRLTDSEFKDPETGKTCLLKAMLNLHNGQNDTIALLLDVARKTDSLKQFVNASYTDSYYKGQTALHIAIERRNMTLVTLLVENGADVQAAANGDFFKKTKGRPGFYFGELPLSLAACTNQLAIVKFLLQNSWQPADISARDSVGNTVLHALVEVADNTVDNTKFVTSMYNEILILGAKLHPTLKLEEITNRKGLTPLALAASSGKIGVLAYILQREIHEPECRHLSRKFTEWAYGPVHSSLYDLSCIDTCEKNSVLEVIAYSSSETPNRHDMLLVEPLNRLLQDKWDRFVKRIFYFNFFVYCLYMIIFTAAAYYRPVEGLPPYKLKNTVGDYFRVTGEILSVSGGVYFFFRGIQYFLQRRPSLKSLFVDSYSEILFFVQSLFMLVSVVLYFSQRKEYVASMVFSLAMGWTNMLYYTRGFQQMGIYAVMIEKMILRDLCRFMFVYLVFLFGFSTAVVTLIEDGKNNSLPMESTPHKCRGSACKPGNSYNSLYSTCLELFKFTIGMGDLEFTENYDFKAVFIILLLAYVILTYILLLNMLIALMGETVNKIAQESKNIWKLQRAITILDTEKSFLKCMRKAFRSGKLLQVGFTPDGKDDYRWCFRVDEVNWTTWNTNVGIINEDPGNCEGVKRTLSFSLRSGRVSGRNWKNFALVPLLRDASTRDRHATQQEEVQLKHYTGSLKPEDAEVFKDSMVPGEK
Chain of Transient receptor potential cation channel subfamily V member 4 (Homo sapiens) (Q9HBA0 whole entry): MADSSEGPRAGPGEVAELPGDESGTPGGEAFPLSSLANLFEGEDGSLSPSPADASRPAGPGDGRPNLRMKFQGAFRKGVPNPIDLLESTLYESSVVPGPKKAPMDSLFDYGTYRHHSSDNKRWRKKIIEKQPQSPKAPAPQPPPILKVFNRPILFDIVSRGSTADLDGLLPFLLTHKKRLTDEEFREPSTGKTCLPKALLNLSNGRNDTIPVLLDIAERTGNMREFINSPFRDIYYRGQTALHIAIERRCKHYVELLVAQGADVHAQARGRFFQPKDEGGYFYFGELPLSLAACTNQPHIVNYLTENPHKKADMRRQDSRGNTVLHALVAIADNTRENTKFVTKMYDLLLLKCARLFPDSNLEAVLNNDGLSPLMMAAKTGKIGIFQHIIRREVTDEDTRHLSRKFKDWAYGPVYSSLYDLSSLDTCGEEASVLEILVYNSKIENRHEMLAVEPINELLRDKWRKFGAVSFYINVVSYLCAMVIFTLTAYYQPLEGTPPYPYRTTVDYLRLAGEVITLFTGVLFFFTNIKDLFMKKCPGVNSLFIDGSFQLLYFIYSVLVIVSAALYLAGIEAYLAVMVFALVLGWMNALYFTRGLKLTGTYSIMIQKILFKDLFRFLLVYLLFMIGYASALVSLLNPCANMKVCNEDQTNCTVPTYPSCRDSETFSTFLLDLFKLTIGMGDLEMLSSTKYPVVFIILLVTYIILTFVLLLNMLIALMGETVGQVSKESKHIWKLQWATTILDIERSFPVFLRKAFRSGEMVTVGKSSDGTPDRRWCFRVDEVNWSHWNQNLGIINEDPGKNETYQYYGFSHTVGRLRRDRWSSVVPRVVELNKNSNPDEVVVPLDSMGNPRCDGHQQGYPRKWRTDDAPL
Chain of Transient receptor potential cation channel subfamily M member 7 (Homo sapiens) (Q96QT4 whole entry): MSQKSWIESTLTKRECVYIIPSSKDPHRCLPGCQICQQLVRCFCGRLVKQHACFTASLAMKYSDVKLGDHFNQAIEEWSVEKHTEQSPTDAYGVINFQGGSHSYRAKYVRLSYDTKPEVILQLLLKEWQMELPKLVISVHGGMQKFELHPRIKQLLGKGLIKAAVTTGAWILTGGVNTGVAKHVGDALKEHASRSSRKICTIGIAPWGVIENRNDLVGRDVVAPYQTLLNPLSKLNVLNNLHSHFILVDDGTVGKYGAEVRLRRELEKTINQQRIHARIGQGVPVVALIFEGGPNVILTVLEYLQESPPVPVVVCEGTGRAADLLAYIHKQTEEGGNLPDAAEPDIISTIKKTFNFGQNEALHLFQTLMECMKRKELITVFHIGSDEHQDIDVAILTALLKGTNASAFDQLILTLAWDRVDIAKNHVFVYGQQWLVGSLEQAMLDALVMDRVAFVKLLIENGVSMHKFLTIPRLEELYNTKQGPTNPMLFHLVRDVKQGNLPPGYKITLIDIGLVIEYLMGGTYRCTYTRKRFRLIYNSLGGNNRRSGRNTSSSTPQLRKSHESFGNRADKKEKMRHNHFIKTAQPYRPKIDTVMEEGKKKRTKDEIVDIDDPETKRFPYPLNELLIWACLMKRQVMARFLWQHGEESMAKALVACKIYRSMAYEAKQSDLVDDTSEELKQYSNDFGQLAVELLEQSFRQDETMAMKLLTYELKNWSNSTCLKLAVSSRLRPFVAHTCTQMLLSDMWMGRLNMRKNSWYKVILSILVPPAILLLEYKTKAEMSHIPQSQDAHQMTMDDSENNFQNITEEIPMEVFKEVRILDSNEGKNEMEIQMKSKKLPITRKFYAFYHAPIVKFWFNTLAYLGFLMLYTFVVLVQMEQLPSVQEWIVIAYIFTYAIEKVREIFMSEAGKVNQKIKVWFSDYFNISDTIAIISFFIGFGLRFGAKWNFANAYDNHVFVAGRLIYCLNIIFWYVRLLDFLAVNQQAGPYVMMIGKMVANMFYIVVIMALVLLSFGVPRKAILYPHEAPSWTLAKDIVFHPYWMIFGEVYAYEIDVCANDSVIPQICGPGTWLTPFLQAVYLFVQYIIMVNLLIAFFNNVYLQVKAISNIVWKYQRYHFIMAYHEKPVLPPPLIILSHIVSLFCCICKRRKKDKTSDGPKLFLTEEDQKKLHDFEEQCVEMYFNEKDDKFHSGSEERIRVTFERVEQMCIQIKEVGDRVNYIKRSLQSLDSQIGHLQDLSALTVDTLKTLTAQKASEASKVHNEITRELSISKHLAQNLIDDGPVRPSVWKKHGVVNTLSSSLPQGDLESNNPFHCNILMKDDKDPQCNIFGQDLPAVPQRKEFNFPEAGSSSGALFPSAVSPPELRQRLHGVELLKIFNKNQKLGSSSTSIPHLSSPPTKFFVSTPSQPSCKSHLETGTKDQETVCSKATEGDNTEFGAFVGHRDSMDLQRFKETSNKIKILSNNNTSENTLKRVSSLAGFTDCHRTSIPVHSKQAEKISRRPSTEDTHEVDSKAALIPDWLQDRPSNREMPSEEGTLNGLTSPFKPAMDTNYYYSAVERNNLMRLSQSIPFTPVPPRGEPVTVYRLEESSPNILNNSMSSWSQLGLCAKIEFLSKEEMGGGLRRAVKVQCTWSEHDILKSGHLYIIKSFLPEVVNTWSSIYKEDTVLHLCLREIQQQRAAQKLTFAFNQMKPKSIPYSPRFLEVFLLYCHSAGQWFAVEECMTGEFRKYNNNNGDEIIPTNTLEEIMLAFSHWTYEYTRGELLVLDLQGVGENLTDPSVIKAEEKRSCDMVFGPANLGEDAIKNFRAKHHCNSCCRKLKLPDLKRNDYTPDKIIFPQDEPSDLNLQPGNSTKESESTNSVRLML

For the compound `O=[N+]([O-])c1ccc(SSc2ccc([N+](=O)[O-])cn2)nc1`, the outcome in assay [1], in assay [2], in assay [3] and in assay [5] was Active. Moreover, the outcome (in assay [4]; in the assay with HEK293) was inactive.
Regarding `CC(=O)N[C@@H](C(=O)O)C(C)(C)SN=O` (racemic), the result in assay [6] and in assay [7] was Active.
